Test results taken from patent US20230140290A1, “SALICYLAMIDE DERIVATIVES AND RELATED METHODS OF MAKING” (THE BOARD OF REGENTS OF THE UNIVERSITY OF TEXAS SY, priority 2020, published 2023).

Assays:
[1] = system: HAdV5-GFP; assay: Plaque assay (inhibition of HAdV plaque formation); assay type: cell-based, HAdV-5; details: for inhibition at 10 µM: read-out: Plaque Assay (%) Inhibition (10 μM); for IC50: read-out: Plaque Assay IC50 (μM), HAdV5-GFP, low MOI, 293β5 cell line; for Selectivity index (SI): ratio of CC50 to IC50 in plaque assay
Procedure: Plaque Assay. […] When cells reached 80-90% confluency, they were infected with HAdV5-GFP (0.06 vp/cell) and rocked for 2 h at 37° C. After the incubation the inoculum was removed, and the cells were washed once with PBS.
Plaque Assay. Compounds were tested using low MOI infections (0.06 vp/cell) and at concentrations of 10 μM and in a dose-response assay ranging from 10 to 0.3 μM in a plaque assay. […] When cells reached 80-90% confluency, they were infected with HAdV5-GFP (0.06 vp/cell) and rocked for 2 h at 37° C. After the incubation the inoculum was removed, and the cells were washed once with PBS. […] The mixture also contained the compounds in concentrations ranging from 10 to 0.3 μM.

[2] = system: A549 cells; assay: Cytotoxicity assay (AlamarBlue); details: read-out: CC50 (μM), cytotoxic concentration 50%; A549 cell line, 48 h
Procedure: Cytotoxicity Assay. The cytotoxicity of the compounds was analyzed by commercial kit AlamarBlue® (Invitrogen, Ref. DAL1025). A549 cells at a density of 5×10^3 cells per well in 96-well plates were seeded. […] Cells were then incubated at 37° C. for 48 h following the kit protocol. The cytotoxic concentration 50 (CC50) value was obtained using the statistical package GraphPad Prism. This assay was performed in duplicate.

Row | Structure (SMILES) | inhibition at 10 µM [1] [%] | IC50 [1] [µM] | CC50 [2] [µM] | Selectivity index (SI) [1]
1 | O=C(NCc1ccc([N+](=O)[O-])cc1Cl)c1cc(Cl)ccc1O [Compound 30, 5-Chloro-N-(2-chloro-4-nitrobenzyl)-2-hydroxybenzamide] | 100 | 1.4 ± 0.11 | 51.4 ± 3.7 | –
2 | O=C(NCc1ccc(F)cc1Cl)c1cc(Cl)ccc1O [Compound 31, 5-Chloro-N-(2-chloro-4-fluorobenzyl)-2-hydroxybenzamide] | 97.1 ± 4.1 | 2.56 ± 0.06 | 30.9 ± 10.2 | 12.1
3 | O=C(NCc1ccc(Cl)cc1Cl)c1cc(Cl)ccc1O [Compound 32, 5-Chloro-N-(2,4-dichlorobenzyl)-2-hydroxybenzamide] | 99.2 ± 0.4 | 1.73 ± 0.51 | 30.9 ± 13.6 | –
4 | O=C(NCc1cc(F)cc(C(F)(F)F)c1)c1cc(Cl)ccc1O [Compound 35, 5-Chloro-N-(3-fluoro-5-(trifluoromethyl)benzyl)-2-hydroxybenzamide] | 98.1 ± 1.4 | 2.4 ± 0.05 | 36.3 ± 7.9 | 15.1
5 | O=C(NCc1ccc(C(F)(F)F)c(F)c1)c1cc(Cl)ccc1O [Compound 36, 5-Chloro-N-(3-fluoro-4-(trifluoromethyl)benzyl)-2-hydroxybenzamide] | 99 ± 1.5 | 1.4 ± 0.02 | 22.3 ± 7.2 | –
6 | O=C(NCc1ccc(C(F)(F)F)cc1F)c1cc(Cl)ccc1O [Compound 37, 5-Chloro-N-(2-fluoro-4-(trifluoromethyl)benzyl)-2-hydroxybenzamide] | 98.8 ± 0.8 | 1.32 ± 0.04 | 45.6 ± 7.3 | –
7 | O=C(NCc1ccc(Cl)cc1)c1cc(Cl)ccc1O [Compound 38, 5-Chloro-N-(4-chlorobenzyl)-2-hydroxybenzamide] | 97.4 ± 3.7 | 3.57 ± 1.43 | 27.1 ± 1.1 | 7.6
8 | O=C(NCc1ccc(C(F)(F)F)cc1)c1cc(Cl)ccc1O [Compound 42, 5-Chloro-2-hydroxy-N-(4-(trifluoromethyl)benzyl)benzamide] | 99.6 ± 0.2 | 2.59 ± 0.42 | 23.9 ± 9.2 | 9.2
9 | O=C(NCc1ccc([N+](=O)[O-])cc1)c1cc(Cl)ccc1O [Compound 43, 5-Chloro-2-hydroxy-N-(4-nitrobenzyl)benzamide] | 99.5 ± 0.7 | 6.56 ± 0.47 | 175 ± 43.9 | 26.7
10 | Cc1ccc(CNC(=O)c2cc(Cl)ccc2O)cc1 [Compound 44, 5-Chloro-2-hydroxy-N-(4-methylbenzyl)benzamide] | 96.6 ± 4 | 8.12 ± 2.16 | 87.7 ± 4.7 | 10.8
11 | C[C@@H](NC(=O)c1cc(Cl)ccc1O)c1ccccc1 [Compound 46, (R)-5-Chloro-2-hydroxy-N-(1-phenylethyl)benzamide] | 100 | – | 84.6 ± 20.5 | –
12 | C[C@H](NC(=O)c1cc(Cl)ccc1O)c1ccccc1 [Compound 47, (S)-5-Chloro-2-hydroxy-N-(1-phenylethyl)benzamide] | 100 | 2.54 | 199 | 78.5
13 | C[C@@H](NC(=O)c1cc(Cl)ccc1O)c1ccc(Cl)cc1 [Compound 48, (R)-5-Chloro-N-(1-(4-chlorophenyl)ethyl)-2-hydroxybenzamide] | 100 | – | 31.1 ± 3.2 | –
14 | O=C(NCCc1ccc(F)cc1)c1cc(Cl)ccc1O [Compound 52, 5-Chloro-N-(4-fluorophenethyl)-2-hydroxybenzamide] | 98.7 ± 1.8 | 3.94 | 154 | 39.1
15 | O=C(Cc1cc(Cl)ccc1O)Nc1cc(F)cc(C(F)(F)F)c1 [Compound 53, 2-(5-Chloro-2-hydroxyphenyl)-N-(3-fluoro-5-(trifluoromethyl)phenyl)acetamide] | 91 ± 3.6 | 4.92 | 23.7 ± 1.5 | 4.8
16 | O=C(CNC(=O)c1cc(Cl)ccc1O)Nc1ccc([N+](=O)[O-])cc1Cl [Compound 56, 5-Chloro-N-(2-((2-chloro-4-nitrophenyl)amino)-2-oxoethyl)-2-hydroxybenzamide] | 100 | 2.43 | 129 | 53.2
17 | C[C@H](NC(=O)c1cc(Cl)ccc1O)C(=O)Nc1ccc([N+](=O)[O-])cc1Cl [Compound 57, (S)-5-Chloro-N-(1-((2-chloro-4-nitrophenyl)amino)-1-oxopropan-2-yl)-2-hydroxybenzamide] | 97.4 ± 2.7 | 3.85 | 100 | 26.0
18 | O=C(N[C@@H](Cc1ccccc1)C(=O)Nc1ccc([N+](=O)[O-])cc1Cl)c1cc(Cl)ccc1O [Compound 59, (S)-5-chloro-N-(1-((2-chloro-4-nitrophenyl)amino)-1-oxo-3-phenylpropan-2-yl)-2-hydroxybenzamide] | 100 | – | 15.2 | –
19 | CC(C)(C)OC(=O)CC[C@H](NC(=O)c1cc(Cl)ccc1O)C(=O)Nc1ccc([N+](=O)[O-])cc1Cl [Compound 64, (S)-tert-Butyl 4-(5-chloro-2-hydroxybenzamido)-5-((2-chloro-4-nitrophenyl)amino)-5-oxopentanoate] | 97.3 ± 0.3 | 0.67 | 22.9 | 34.2
20 | CC(C)[C@H](NC(=O)c1cc(Cl)ccc1O)C(=O)Nc1cc(C(F)(F)F)cc(C(F)(F)F)c1 [Compound 65, (S)—N-(1-((3,5-Bis(trifluoromethyl)phenyl)amino)-3-methyl-1-oxobutan-2-yl)-5-chloro-2-hydroxybenzamide] | 99.5 ± 0.7 | 0.4 | 30.9 | 77.4
21 | CC(C)[C@H](NC(=O)c1cc(Cl)ccc1O)C(=O)Nc1cc(F)cc(C(F)(F)F)c1 [Compound 67, (S)-5-Chloro-N-(1-((3-fluoro-5-(trifluoromethyl)phenyl)amino)-3-methyl-1-oxobutan-2-yl)-2-hydroxybenzamide] | 95.8 ± 5.9 | 0.66 | 43 | 65.2
22 | CC(C)[C@H](NC(=O)c1cc(Cl)ccc1O)C(=O)Nc1ccc(F)c(F)c1 [Compound 68, (S)-5-Chloro-N-(1-((3,4-difluorophenyl)amino)-3-methyl-1-oxobutan-2-yl)-2-hydroxybenzamide] | 98.3 ± 2.4 | 2.96 | 95 ± 18.7 | 32.1
23 | O=C(N[C@@H](Cc1ccccc1)C(=O)Nc1cc(C(F)(F)F)cc(C(F)(F)F)c1)c1cc(Cl)ccc1O [Compound 69, (S)—N-(1-((3,5-Bis(trifluoromethyl)phenyl)amino)-1-oxo-3-phenylpropan-2-yl)-5-chloro-2-hydroxybenzamide] | 99 ± 1.4 | 0.4 | 17.9 | 44.9
24 | CS(=O)(=O)Nc1ccc(Cl)cc1C(=O)NCC(=O)Nc1ccc([N+](=O)[O-])cc1Cl [Compound 72, 5-Chloro-N-(2-((2-chloro-4-nitrophenyl)amino)-2-oxoethyl)-2-(methylsulfonamido)benzamide] | 99.6 ± 5.5 | 9.65 ± 0.01 | 141 ± 13.5 | 14.6
